Reference: patent US8242118B2, “Arylsulfonamide derivatives for use as CCR3 antagonists in the treatment of inflammatory and immunological disorders” (Axikin Pharmaceuticals Inc., priority 2001, dated 2012)
pIC50: −log10 of the molar value. Where a name gives a salt, the structure may show the parent alone.

Legend:
Human CCR3 = biological target: T1, Human CCR3 (Homo sapiens, UniProt P51677); assay: Receptor binding assay (RBA), [125I]-eotaxin; conditions: human CCR3-transformed K562 cells, 0.1 nM [125I]-eotaxin; compounds of about 40 to 90% purity; read-out: Activity grade RBA (IC50 class)
T1 construct: The cloned CCR3 cDNA was constructed with pcDNA3 vector and transfected into a IC562 cell line; expressed in transfected cells
T1 sequence (P51677 1-355): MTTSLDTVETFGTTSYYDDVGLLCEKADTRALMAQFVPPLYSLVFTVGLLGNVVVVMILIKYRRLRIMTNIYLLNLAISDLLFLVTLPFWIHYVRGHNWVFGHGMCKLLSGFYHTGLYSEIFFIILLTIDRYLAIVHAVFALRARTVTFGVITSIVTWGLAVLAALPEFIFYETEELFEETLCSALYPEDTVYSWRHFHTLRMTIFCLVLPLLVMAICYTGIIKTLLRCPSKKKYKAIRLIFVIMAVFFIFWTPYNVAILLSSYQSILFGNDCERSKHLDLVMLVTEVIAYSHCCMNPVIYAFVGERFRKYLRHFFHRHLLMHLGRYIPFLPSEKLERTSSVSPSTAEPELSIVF
Procedure, shortened: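 Butyrate-pretreated (5 mM, 20-24 h) CCR3-transfected K562 cells incubated 1 h at room temperature with compound and 0.1 nM final [125I]-eotaxin in HEPES pH 7.6 buffer; bound radioactivity counted after filtration. Non-specific binding with 500 nM unlabeled eotaxin; IC50 from inhibition curve.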

Cc1cc(C)cc(Oc2ccc([N+](=O)[O-])cc2S(=O)(=O)N2CCN(C(=O)OC(C)(C)C)CC2)c1 [Example 1-1, tert-butyl 4-{[2-(3,5-dimethylphenoxy)-5-nitrophenyl]sulfonyl}-1-piperazinecarboxylate]
pIC50 (Human CCR3): < 5.00 | melting point: 232 to 233 °C

Cl.O=[N+]([O-])c1ccc(Oc2cc(F)cc(F)c2)c(S(=O)(=O)N2CCNCC2)c1 [Example 1-4]
pIC50 (Human CCR3): > 6.00 | melting point: 273 to 274 °C

COc1cc(OC)cc(Oc2ccc([N+](=O)[O-])cc2S(=O)(=O)N2CCNCC2)c1.Cl [Example 1-5]
pIC50 (Human CCR3): < 5.00 | melting point: 211 to 213 °C

Cl.O=[N+]([O-])c1ccc(Oc2cc(C(F)(F)F)cc(C(F)(F)F)c2)c(S(=O)(=O)N2CCNCC2)c1 [Example 1-6]
pIC50 (Human CCR3): > 6.00 | melting point: 188 to 191 °C

CC(C)(C)c1cc(Oc2ccc([N+](=O)[O-])cc2S(=O)(=O)N2CCNCC2)cc(C(C)(C)C)c1.Cl [Example 1-7]
pIC50 (Human CCR3): < 5.00 | melting point: 141 to 143 °C

Cc1cc(Oc2ccc([N+](=O)[O-])cc2S(=O)(=O)N2CCNCC2)cc(C(C)C)c1.Cl [Example 1-8]
pIC50 (Human CCR3): > 6.00 | melting point: 182 to 185 °C

CC(C)c1cccc(Oc2ccc([N+](=O)[O-])cc2S(=O)(=O)N2CCNCC2)c1.Cl [Example 1-9]
pIC50 (Human CCR3): > 6.00 | melting point: 168 to 170 °C

Cl.N#Cc1cccc(Oc2ccc([N+](=O)[O-])cc2S(=O)(=O)N2CCNCC2)c1 [Example 1-10]
pIC50 (Human CCR3): 5.00 to 6.00 | melting point: 265 to 267 °C

Cl.O=[N+]([O-])c1ccc(Oc2cccc3ccccc23)c(S(=O)(=O)N2CCNCC2)c1 [Example 1-11]
pIC50 (Human CCR3): 5.00 to 6.00 | melting point: 196 to 198 °C

Cc1ccccc1Oc1ccc([N+](=O)[O-])cc1S(=O)(=O)N1CCNCC1.Cl [Example 1-12]
pIC50 (Human CCR3): 5.00 to 6.00 | melting point: 167 to 169 °C

Cl.Cl.Cl.Nc1ccc(Oc2ccc([N+](=O)[O-])cc2S(=O)(=O)N2CCNCC2)cc1 [Example 1-13]
pIC50 (Human CCR3): < 5.00 | melting point: 246 to 248 °C

COc1ccccc1Oc1ccc([N+](=O)[O-])cc1S(=O)(=O)N1CCNCC1.Cl [Example 1-27]
pIC50 (Human CCR3): > 6.00 | melting point: 142 °C

Cl.O=[N+]([O-])c1ccc(Oc2ccccc2Cl)c(S(=O)(=O)N2CCNCC2)c1 [Example 1-28]
pIC50 (Human CCR3): 5.00 to 6.00 | melting point: 166 to 169 °C

CC(=O)c1ccccc1Oc1ccc([N+](=O)[O-])cc1S(=O)(=O)N1CCNCC1.Cl [Example 1-30]
pIC50 (Human CCR3): < 5.00 | melting point: 194 to 200 °C

CC(=O)c1cccc(Oc2ccc([N+](=O)[O-])cc2S(=O)(=O)N2CCNCC2)c1.Cl [Example 1-31]
pIC50 (Human CCR3): < 5.00 | melting point: 77 °C

CN(C)c1cccc(Oc2ccc([N+](=O)[O-])cc2S(=O)(=O)N2CCNCC2)c1.Cl [Example 1-32]
pIC50 (Human CCR3): < 5.00 | melting point: 182 °C

Cl.O=[N+]([O-])c1ccc(Oc2cc(Cl)cc(Cl)c2)c(S(=O)(=O)N2CCNCC2)c1 [Example 1-33]
pIC50 (Human CCR3): > 6.00 | melting point: 260 to 264 °C

Cl.O=[N+]([O-])c1ccc(Oc2cccc(C(F)(F)F)c2)c(S(=O)(=O)N2CCNCC2)c1 [Example 1-34]
pIC50 (Human CCR3): > 6.00 | melting point: 128 °C

Cc1cc(C)cc(Oc2ccc(S(C)(=O)=O)cc2S(=O)(=O)N2CCNCC2)c1.Cl [Example 1-35]
pIC50 (Human CCR3): 5.00 to 6.00 | melting point: 267 to 268 °C

CC(C)(C)c1cccc(Oc2ccc([N+](=O)[O-])cc2S(=O)(=O)N2CCNCC2)c1.Cl [Example 1-36]
pIC50 (Human CCR3): 5.00 to 6.00 | melting point: 155 °C

COc1cc(C)cc(Oc2ccc([N+](=O)[O-])cc2S(=O)(=O)N2CCNCC2)c1.Cl [Example 1-37]
pIC50 (Human CCR3): > 6.00 | melting point: 113 °C

Cl.O=[N+]([O-])c1cccc(Oc2ccc([N+](=O)[O-])cc2S(=O)(=O)N2CCNCC2)c1 [Example 1-38]
pIC50 (Human CCR3): 5.00 to 6.00 | melting point: 150 °C

Cl.O=[N+]([O-])c1ccc(Oc2cccc(Br)c2)c(S(=O)(=O)N2CCNCC2)c1 [Example 1-39]
pIC50 (Human CCR3): > 6.00 | melting point: 119 °C

CCCCc1ccccc1Oc1ccc([N+](=O)[O-])cc1S(=O)(=O)N1CCNCC1.Cl [Example 1-40]
pIC50 (Human CCR3): > 6.00 | melting point: 140 to 150 °C

Cc1cc(C)cc(Oc2ccccc2S(=O)(=O)N2CCNCC2)c1.Cl [Example 1-41]
pIC50 (Human CCR3): < 5.00 | melting point: 205 to 207 °C

Cc1cc(C)cc(Oc2ccc(C(=O)N3CCNCC3)cc2S(=O)(=O)N2CCNCC2)c1.Cl.Cl [Example 1-42]
pIC50 (Human CCR3): < 5.00 | melting point: 288 to 290 °C

Cc1cc(C)cc(Oc2ccc(C(F)(F)F)cc2S(=O)(=O)N2CCNCC2)c1.Cl [Example 1-43]
pIC50 (Human CCR3): > 6.00 | melting point: 238 to 239 °C

Cc1cc(C)cc(Oc2cc(C)c([N+](=O)[O-])cc2S(=O)(=O)N2CCNCC2)c1.Cl [Example 1-44]
pIC50 (Human CCR3): 5.00 to 6.00 | melting point: 159 °C

Cc1cc(Oc2cc(Cl)cc(Cl)c2)c(S(=O)(=O)N2CCNCC2)cc1[N+](=O)[O-].Cl [Example 1-45]
pIC50 (Human CCR3): > 6.00 | melting point: 168 °C

Cc1cc(C)cc(Oc2cc(C(F)(F)F)ccc2S(=O)(=O)N2CCNCC2)c1.Cl [Example 1-46]
pIC50 (Human CCR3): < 5.00 | melting point: 250 to 251 °C

COc1cc(Oc2cc(C)cc(C)c2)c(S(=O)(=O)N2CCNCC2)cc1[N+](=O)[O-].Cl [Example 1-47]
pIC50 (Human CCR3): 5.00 to 6.00 | melting point: 188 °C

O=[N+]([O-])c1ccc(Oc2cc(Cl)cc(Cl)c2)c(S(=O)(=O)N2CC3CCCNC3C2)c1 (stereo not drawn) [Example 1-48]
pIC50 (Human CCR3): > 6.00 | melting point: 170 °C

Cl.O=S(=O)(c1cc(F)ccc1Oc1cc(Cl)cc(Cl)c1)N1CCNCC1 [Example 1-51]
pIC50 (Human CCR3): > 6.00 | melting point: 145 °C

Cc1cc(C)cc(Oc2ccc([N+](=O)[O-])cc2S(=O)(=O)N2CC(C)NCC2C)c1.Cl (stereo not drawn) [Example 1-54]
pIC50 (Human CCR3): > 6.00 | melting point: 159 °C

Cl.O=S(=O)(c1cc(Cl)ccc1Oc1cc(Cl)cc(Cl)c1)N1CCNCC1 [Example 1-56]
pIC50 (Human CCR3): > 6.00 | melting point: 255 to 257 °C

Cl.O=S(=O)(c1cc(Br)ccc1Oc1cc(Cl)cc(Cl)c1)N1CCNCC1 [Example 1-57]
pIC50 (Human CCR3): > 6.00 | melting point: 269 to 271 °C

Cc1cc(Oc2ccc([N+](=O)[O-])cc2S(=O)(=O)N2CCNCC2)ccc1Cl.Cl [Example 1-60]
pIC50 (Human CCR3): 5.00 to 6.00 | melting point: 204 °C

Cc1ccc(C)c(Oc2ccc([N+](=O)[O-])cc2S(=O)(=O)N2CCNCC2)c1C.Cl [Example 1-61]
pIC50 (Human CCR3): 5.00 to 6.00 | melting point: 220 °C

Cc1cccc(Oc2ccc([N+](=O)[O-])cc2S(=O)(=O)N2CCNCC2)c1C.Cl [Example 1-62]
pIC50 (Human CCR3): > 6.00 | melting point: 142 °C

Cc1ccc(Oc2ccc([N+](=O)[O-])cc2S(=O)(=O)N2CCNCC2)cc1C.Cl [Example 1-63]
pIC50 (Human CCR3): 5.00 to 6.00 | melting point: 142 °C

Cc1ccc(C)c(Oc2ccc([N+](=O)[O-])cc2S(=O)(=O)N2CCNCC2)c1.Cl [Example 1-64]
pIC50 (Human CCR3): > 6.00 | melting point: 141 °C

Cc1cc(C)c(C)c(Oc2ccc([N+](=O)[O-])cc2S(=O)(=O)N2CCNCC2)c1.Cl [Example 1-65]
pIC50 (Human CCR3): > 6.00 | melting point: 187 °C

Cc1ccc(C(C)C)c(Oc2ccc([N+](=O)[O-])cc2S(=O)(=O)N2CCNCC2)c1.Cl [Example 1-66]
pIC50 (Human CCR3): 5.00 to 6.00 | melting point: 193 °C

Cl.O=[N+]([O-])c1ccc(Oc2c(F)c(F)cc(F)c2F)c(S(=O)(=O)N2CCNCC2)c1 [Example 1-74]
pIC50 (Human CCR3): > 6.00 | melting point: 104 °C

O=[N+]([O-])c1ccc(Oc2cc(Br)cc(Br)c2)c(S(=O)(=O)N2CCNCC2)c1 [Example 1-76]
pIC50 (Human CCR3): > 6.00 | melting point: 205 °C

Cl.O=[N+]([O-])c1ccc(Oc2cc(Cl)cc(Cl)c2F)c(S(=O)(=O)N2CCNCC2)c1 [Example 1-77]
pIC50 (Human CCR3): > 6.00 | melting point: 263 °C

Cc1cc(Oc2ccc([N+](=O)[O-])cc2S(=O)(=O)N2CCNCC2)cc(C)c1Cl [Example 1-79]
pIC50 (Human CCR3): > 6.00 | melting point: 178 to 179 °C

Cc1ccc(Cl)c(Oc2ccc([N+](=O)[O-])cc2S(=O)(=O)N2CCNCC2)c1 [Example 1-80]
pIC50 (Human CCR3): > 6.00 | melting point: 166 to 167 °C

O=[N+]([O-])c1ccc(Oc2cc(Cl)ccc2Cl)c(S(=O)(=O)N2CCNCC2)c1 [Example 1-84]
pIC50 (Human CCR3): > 6.00 | melting point: 179 to 180 °C

Cl.O=[N+]([O-])c1ccc(Oc2cc(Cl)cc(Cl)c2Cl)c(S(=O)(=O)N2CCNCC2)c1 [Example 1-86]
pIC50 (Human CCR3): > 6.00 | melting point: 188 to 189 °C

O=C(O)C1CNCCN1S(=O)(=O)c1cc([N+](=O)[O-])ccc1Oc1cc(Cl)cc(Cl)c1 (stereo not drawn) [Example 1-87]
pIC50 (Human CCR3): > 6.00 | melting point: 240 to 241 °C

Cc1cc(C)cc(Oc2ccc([N+](=O)[O-])cc2S(=O)(=O)N2CCN(CCO)CC2)c1 [Example 1-88]
pIC50 (Human CCR3): > 6.00 | melting point: 163 to 164 °C

Cc1cc(C)cc(Oc2ccncc2S(=O)(=O)N2CCNCC2)c1 [Example 25-1, 1-{[4-(3,5-dimethylphenoxy)-3-pyridinyl]sulfonyl}piperazine hydrochloride]
pIC50 (Human CCR3): 5.00 to 6.00
